SMILES strings stand for the structures.

Experimental findings from publication PMC12040169 (PLOS Biology, 2025) are described below.

The nature of the data set: in vitro. The note with it: human, hela cells, % viability.
What is called viability is a read-out of living cells in per cent, often relative to untreated cells. For `CNCC1CCCN1S(=O)(=O)c1ccc(OCc2ncnn2C)cc1` (stereo not drawn) [CBK304500], the viability at 28.5 h, 10 µM is 90%. In the case of `CCn1cc(NC(=O)CC(C)(O)c2ccccc2)ccc1=O` (stereo not drawn) [CBK304507] it was 91.7%; in that of `CCc1nn(C)cc1CN1CCOC(c2nc(C(C)(C)C)cs2)C1` (stereo not drawn) [CBK304513], 104%.

Regarding `CCOC(=O)C1CCCN(C(=O)CCn2c(=O)oc3cc(Cl)ccc32)C1` (stereo not drawn) [CBK304516], the viability at 28.5 h, 10 µM is 93.8%.

As to `NC(=O)C1CCN(C(=O)Cc2csc(COc3ccc(Cl)cc3)n2)CC1` [CBK304519], the viability at 28.5 h, 10 µM came to 81.9%. The value for `Cc1cc(NC(=O)CS(=O)(=O)Cc2cccc(C(F)(F)F)c2)no1` [CBK304520] was 99.3%; that for `CC(C)(C)OC(=O)N1CCCC(C(=O)Nc2ccccn2)C1` (stereo not drawn) [CBK304524] was 95.4%; that for `CC(C)(C)c1cc(NC(=O)CN2CCN(c3cccc(Cl)c3)CC2)on1` [CBK304525] was 85.7%. In the case of `CCOc1ncccc1C(=O)NCc1ccc(COCC(F)(F)F)cc1` [CBK304526] it was 97.8%; in that of `CCOc1ccc(CN2CCN(C(=O)c3cccc(C#N)c3)CC2)cc1` [CBK304527], 93.5%. In the case of `Cc1ccnc2nc(C(=O)OC(C)C(=O)c3ccc4c(c3)CCC4)nn12` (stereo not drawn) [CBK304528] it was 89.5%. With `COc1ccccc1-c1cnn2c(NCC3CCCO3)cc(C)nc12` (stereo not drawn) [CBK304529], the viability at 28.5 h, 10 µM is 84.5%. In the case of `COc1ccccc1-c1cc2nc(C)cc(N3CCOCC3)n2n1` [CBK304532] it was 88.7%. The value for `O=C(CCSCc1nc2sc3c(c2c(=O)[nH]1)CCC3)N1CCC1` [CBK304536] was 75.7%; that for `COC(=O)CC(NC(=O)c1cccc(NC(C)=O)c1)c1cccs1` (stereo not drawn) [CBK304537] was 78%; that for `CC(=O)Nc1ccc(CNC(=O)c2ccc[nH]2)cc1` [CBK304538] was 87.1%. In the case of `CCCCN(CC(N)=O)C(=O)c1sc(COc2ccc(Cl)cc2)nc1C` [CBK304539] it was 101%. Consider `Cc1nc(Cc2nc(-c3ccc4c(c3)CCCN4S(C)(=O)=O)cs2)cs1` [CBK304542], for which the viability at 28.5 h, 10 µM came to 97.3%. Consider `CCCCN(C)S(=O)(=O)NCCc1cn2ccccc2n1` [CBK304543], for which the viability at 28.5 h, 10 µM was 101%. In the case of `CC(N(C)S(=O)(=O)c1ccc(-n2ncc(Cl)c(Cl)c2=O)cc1)C(C)(C)C` (stereo not drawn) [CBK304544] it was 73.9%. For the compound `NC(=O)NC(CC(=O)N1CCN(c2nccs2)CC1)c1cccc(Br)c1` (stereo not drawn) [CBK304548], the viability at 28.5 h, 10 µM amounted to 90.6%. For the compound `CC(=O)Nc1ccc(OCC(O)Cn2c(CO)nc3ccccc32)cc1` (stereo not drawn) [CBK304549], the viability at 28.5 h, 10 µM worked out at 81.3%. The value for `CCOC(=O)C1CSCCN1C(=O)c1cnn(-c2ccc(Br)cc2)c1C` (stereo not drawn) [CBK304550] was 102%; that for `CCOC(=O)Cc1csc(SC(C)C(=O)N2CCNC2=O)n1` (stereo not drawn) [CBK304551] was 106%; that for `O=C(NCCNc1cnccn1)c1cc(F)cc(Br)c1` [CBK304554] was 99.6%.

With `CCOC(=O)C1CCN(c2cccc(F)c2C#N)CC1` [CBK304558], the viability at 28.5 h, 10 µM is 101%. In the case of `O=C(NCC(c1ccco1)N1CCCC1)C1CCCCC1` (stereo not drawn) [CBK304560] it was 88.7%. Regarding `Cc1sc2ncn(CC(=O)NC3CCOc4ccccc43)c(=O)c2c1C` (stereo not drawn) [CBK304562], the viability at 28.5 h, 10 µM stood at 86.3%.

In the case of `CC(C)(C)CC(NC(=O)C1CCCN(S(C)(=O)=O)C1)c1ccccc1` (stereo not drawn) [CBK304563], the viability at 28.5 h, 10 µM amounted to 90.6%. Turning to `Cc1ccccc1CC(=O)NCC(c1ccccc1Cl)N1CCOCC1` (stereo not drawn) [CBK304564], the viability at 28.5 h, 10 µM is 85.3%.

On to `O=C(Cn1ccc(=O)[nH]c1=O)NCc1cccnc1OCC(F)(F)F` [CBK304565], for which the viability at 28.5 h, 10 µM was found to be 90.5%. `N#CC1(NC(=O)c2ccn(-c3cccc(F)c3)n2)CCSC1` (stereo not drawn) [CBK304566]: the viability at 28.5 h, 10 µM is 106%. `COc1ccc(CCNC(=O)CN2CCCC2Cn2cncn2)cc1` (stereo not drawn) [CBK304567]: the viability at 28.5 h, 10 µM amounted to 115%. `COc1cc(C(=O)Nc2ncccc2OCCCC#N)ccc1C` [CBK304568]: the viability at 28.5 h, 10 µM came out at 85.7%. In the case of `COc1cc(C)nc(N2CCN(C(=O)CCc3ccsc3)CC2)n1` [CBK304572], the viability at 28.5 h, 10 µM was found to be 87.6%.

On to `Cc1ccc(N2CCCN(C(=O)CCc3ccsc3)CC2)nn1` [CBK304573], for which the viability at 28.5 h, 10 µM came to 91.1%. `O=C(O)c1ccc(Cl)c(S(=O)(=O)NCc2ccco2)c1` [CBK304575]: the viability at 28.5 h, 10 µM was 105%. `Nc1cc(=O)[nH]c(SCC(=O)N2CCCc3ccccc32)n1` [CBK304576]: the viability at 28.5 h, 10 µM was 94.1%.

Consider `O=C(c1cc(S(=O)(=O)N2CCOCC2)ccc1Cl)N1CCCCC1CO` (stereo not drawn) [CBK304579], for which the viability at 28.5 h, 10 µM is 88.6%.

Consider `CN(C(=O)c1cc(S(=O)(=O)N2CCOCC2)ccc1F)C1CCCCC1` [CBK304580], for which the viability at 28.5 h, 10 µM is 114%.

In the case of `O=C(Nc1nc2ccccc2[nH]1)c1ccc(N2CCCS2(=O)=O)cc1` [CBK304582], the viability at 28.5 h, 10 µM stood at 98.6%. The value for `CC(=O)Nc1cccc(C(=O)NCC(c2cccs2)N(C)C)c1` (stereo not drawn) [CBK304583] was 86.7%; that for `O=C(Nc1nc2ccccc2[nH]1)c1cccc(N2CCCS2(=O)=O)c1` [CBK304584] was 100%; that for `COc1ccccc1CN(C)C(=O)CCc1ccc(S(N)(=O)=O)cc1` [CBK304585] was 86.8%. In the case of `COc1ccccc1C(CNC(=O)Nc1cc(C)on1)N1CCCC1` (stereo not drawn) [CBK304586] it was 94.5%; in that of `CCCS(=O)(=O)NC1CCN(c2nc(C(F)(F)F)nc3[nH]cnc23)CC1` [CBK304587], 105%; in that of `CCS(=O)(=O)NC1CCN(c2nc(C(F)(F)F)nc3[nH]cnc23)CC1` [CBK304588], 86.8%. As to `CC(=O)Nc1cccc(-n2c(C)nnc2SCC2CCCCC2)c1` [CBK304590], the viability at 28.5 h, 10 µM worked out at 86.3%. In the case of `CCCS(=O)(=O)NC1CCN(c2nc(C(F)(F)F)nc3ccsc23)CC1` [CBK304591] it was 87%; in that of `CS(=O)(=O)N1CCc2cc(-c3csc(N)n3)ccc21` [CBK304596], 102%; in that of `CN(Cc1ccc(F)cc1F)C(=O)Cn1nc2n(c1=O)CCCCC2` [CBK304598], 86.3%. The value for `CC(=O)Nc1cccc(-n2nnnc2SC2CCCCC2=O)c1` (stereo not drawn) [CBK304600] was 95.4%. Take `COc1ccc(CNC(=O)c2cc(S(=O)(=O)N3CCCC3)c[nH]2)cc1` [CBK304601]: the viability at 28.5 h, 10 µM was found to be 102%. The value for `CC(C)n1nnnc1SCCC(=O)N1CCN(c2ccc(F)cc2)CC1` [CBK304602] was 95.5%. In the case of `COC1(CNC(=O)c2cc3ccccc3[nH]2)CCSC1` (stereo not drawn) [CBK304605], the viability at 28.5 h, 10 µM was determined as 97.9%. Regarding `Cn1ccnc1C1CCN(C(=O)NCc2cccc(F)c2)CC1` [CBK304606], the viability at 28.5 h, 10 µM worked out at 91.3%.

For `COc1ccnc(N2CCN(C(=O)c3c4c(nn3C)CCCC4)CC2)n1` [CBK304609], the viability at 28.5 h, 10 µM was 118%. In the case of `CCn1cc(Cl)c(C(=O)NC2CCN(c3nc(C)cc(=O)[nH]3)CC2)n1` [CBK304614] it was 88.5%. In the case of `Cc1cc(C(F)(F)F)nn1CC(=O)Nc1sc2c(c1C#N)CCC(C)C2` (stereo not drawn) [CBK304619], the viability at 28.5 h, 10 µM was determined as 92.1%. For the compound `CCCOC1CCCN(C(=O)c2cncc(F)c2)C1` (stereo not drawn) [CBK304623], the viability at 28.5 h, 10 µM was determined as 95%.

For `COCC1CCCN(Cc2ccc(Br)cc2)C1` (stereo not drawn) [CBK304624], the viability at 28.5 h, 10 µM is 108%.

In the case of `COCCOc1ccc(C(=O)N2CCN(c3ccccc3)CC2)cc1` [CBK304626], the viability at 28.5 h, 10 µM is 106%.

`O=C(NCCN1CCOCC1)C1CCN(C(=O)c2cccc(F)c2)CC1` [CBK304627]: the viability at 28.5 h, 10 µM came to 85.8%. The value for `COc1cccc(OCC(=O)NCC(c2ccsc2)N2CCCC2)c1` (stereo not drawn) [CBK304630] was 89.6%; that for `COCCN1CCC(CNC(=O)Nc2cc(C)ccc2F)C1` (stereo not drawn) [CBK304631] was 117%. On to `O=C(NCCOc1ccccc1F)C1CC(=O)N(Cc2ccccn2)C1` (stereo not drawn) [CBK304632], for which the viability at 28.5 h, 10 µM was 104%. The value for `O=C(NCC1CCCO1)C1CCN(C(=O)c2cccc(F)c2)CC1` (stereo not drawn) [CBK304633] was 90.5%; that for `CCCn1cc(C(=O)NCC2CCN(c3ccccc3F)C2)c(C)n1` (stereo not drawn) [CBK304634] was 79%; that for `Cn1cc(CCC(=O)N2CCc3[nH]c4ccc(Cl)cc4c3C2)cn1` [CBK304636] was 82%.

For `O=C(CCCn1cccn1)N1CCOC(c2ccc(Cl)c(Cl)c2)C1` (stereo not drawn) [CBK304640], the viability at 28.5 h, 10 µM stood at 98.5%. With `O=C(CCCn1cccn1)N1CCCN(Cc2ccc(F)cc2)CC1` [CBK304641], the viability at 28.5 h, 10 µM was determined as 99.7%.

Take `O=C(NC1CCS(=O)(=O)C1)c1cnc2c(Cl)cccc2c1O` (stereo not drawn) [CBK304644]: the viability at 28.5 h, 10 µM amounted to 87.4%. On to `O=C(Nc1sc2c(c1C(=O)N1CCOCC1)CCCC2)c1cccs1` [CBK304649], for which the viability at 28.5 h, 10 µM is 92.9%. The value for `Cc1ccc(Cl)c(OC(C)C(=O)N2CCN(c3ccccn3)CC2)c1` (stereo not drawn) [CBK304650] was 90.4%. Regarding `O=C(Cn1cnc2c(c1=O)CCCC2)Nc1ccc(Cl)c(Cl)c1` [CBK304655], the viability at 28.5 h, 10 µM was found to be 102%. In the case of `CC(CNS(=O)(=O)c1ccc(N2CCCC2=O)cc1)Cn1cccn1` (stereo not drawn) [CBK304656] it was 87.7%; in that of `CC(=O)Nc1ccc(F)c(NC(=O)NCCC2CCCN2C)c1` (stereo not drawn) [CBK304661], 101%; in that of `CCCCC(=O)Nc1ccc(C(=O)N2CCN(C)CC2)cc1` [CBK304662], 105%. Regarding `COc1cccc(C(=O)NCCC(=O)N2CCN(C)CC2)c1` [CBK304663], the viability at 28.5 h, 10 µM was 95.4%. Turning to `CCOC(=O)c1cc(S(=O)(=O)NC2CCN(C(=O)OCC)CC2)cn1C` [CBK304665], the viability at 28.5 h, 10 µM came to 90.1%. In the case of `CCOC(=O)N1CCC(NS(=O)(=O)c2ccc3c(c2)oc(=O)n3C)CC1` [CBK304666] it was 84.5%.
